{"source": "paper PMC4858680", "about": "“A platinum-based hybrid drug design approach to circumvent acquired resistance to molecular targeted tyrosine kinase inhibitors” (Scientific Reports, 2016)", "key": {"CSK": {"molecular_target": "CSK (Homo sapiens, UniProt P41240)", "experiment": "biochemical", "details": "read-out: Percent control"}, "KIT(L576P)": {"molecular_target": "KIT(L576P) (Homo sapiens, UniProt P10721, L576P)", "sequence (P10721 26-976 L576P)": "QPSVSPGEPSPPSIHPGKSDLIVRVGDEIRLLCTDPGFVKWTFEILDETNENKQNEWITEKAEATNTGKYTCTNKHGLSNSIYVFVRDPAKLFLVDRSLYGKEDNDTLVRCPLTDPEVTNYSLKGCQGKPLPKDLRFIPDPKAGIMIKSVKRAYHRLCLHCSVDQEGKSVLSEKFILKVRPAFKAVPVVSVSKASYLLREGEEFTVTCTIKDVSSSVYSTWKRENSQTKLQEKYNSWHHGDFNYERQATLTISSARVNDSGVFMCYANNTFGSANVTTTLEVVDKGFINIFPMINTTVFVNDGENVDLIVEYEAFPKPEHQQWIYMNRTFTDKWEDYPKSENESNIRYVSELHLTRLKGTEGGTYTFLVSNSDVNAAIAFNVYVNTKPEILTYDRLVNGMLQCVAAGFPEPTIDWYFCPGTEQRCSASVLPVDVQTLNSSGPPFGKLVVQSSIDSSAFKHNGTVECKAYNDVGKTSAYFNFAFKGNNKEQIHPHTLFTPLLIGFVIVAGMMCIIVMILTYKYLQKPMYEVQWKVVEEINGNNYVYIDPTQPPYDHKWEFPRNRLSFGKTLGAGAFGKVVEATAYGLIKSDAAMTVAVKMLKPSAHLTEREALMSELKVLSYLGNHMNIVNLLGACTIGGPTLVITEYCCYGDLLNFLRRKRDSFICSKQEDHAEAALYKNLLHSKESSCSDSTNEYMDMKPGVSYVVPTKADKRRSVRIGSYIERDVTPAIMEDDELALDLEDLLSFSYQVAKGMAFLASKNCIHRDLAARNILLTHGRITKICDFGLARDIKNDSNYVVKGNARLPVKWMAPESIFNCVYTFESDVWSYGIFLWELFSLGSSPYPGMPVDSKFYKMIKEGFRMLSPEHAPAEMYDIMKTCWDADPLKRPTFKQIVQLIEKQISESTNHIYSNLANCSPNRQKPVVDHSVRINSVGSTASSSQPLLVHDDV", "experiment": "biochemical", "details": "read-out: Percent control"}, "EPHA5": {"molecular_target": "EPHA5 (Homo sapiens, UniProt P54756)", "sequence (P54756 25-1037)": "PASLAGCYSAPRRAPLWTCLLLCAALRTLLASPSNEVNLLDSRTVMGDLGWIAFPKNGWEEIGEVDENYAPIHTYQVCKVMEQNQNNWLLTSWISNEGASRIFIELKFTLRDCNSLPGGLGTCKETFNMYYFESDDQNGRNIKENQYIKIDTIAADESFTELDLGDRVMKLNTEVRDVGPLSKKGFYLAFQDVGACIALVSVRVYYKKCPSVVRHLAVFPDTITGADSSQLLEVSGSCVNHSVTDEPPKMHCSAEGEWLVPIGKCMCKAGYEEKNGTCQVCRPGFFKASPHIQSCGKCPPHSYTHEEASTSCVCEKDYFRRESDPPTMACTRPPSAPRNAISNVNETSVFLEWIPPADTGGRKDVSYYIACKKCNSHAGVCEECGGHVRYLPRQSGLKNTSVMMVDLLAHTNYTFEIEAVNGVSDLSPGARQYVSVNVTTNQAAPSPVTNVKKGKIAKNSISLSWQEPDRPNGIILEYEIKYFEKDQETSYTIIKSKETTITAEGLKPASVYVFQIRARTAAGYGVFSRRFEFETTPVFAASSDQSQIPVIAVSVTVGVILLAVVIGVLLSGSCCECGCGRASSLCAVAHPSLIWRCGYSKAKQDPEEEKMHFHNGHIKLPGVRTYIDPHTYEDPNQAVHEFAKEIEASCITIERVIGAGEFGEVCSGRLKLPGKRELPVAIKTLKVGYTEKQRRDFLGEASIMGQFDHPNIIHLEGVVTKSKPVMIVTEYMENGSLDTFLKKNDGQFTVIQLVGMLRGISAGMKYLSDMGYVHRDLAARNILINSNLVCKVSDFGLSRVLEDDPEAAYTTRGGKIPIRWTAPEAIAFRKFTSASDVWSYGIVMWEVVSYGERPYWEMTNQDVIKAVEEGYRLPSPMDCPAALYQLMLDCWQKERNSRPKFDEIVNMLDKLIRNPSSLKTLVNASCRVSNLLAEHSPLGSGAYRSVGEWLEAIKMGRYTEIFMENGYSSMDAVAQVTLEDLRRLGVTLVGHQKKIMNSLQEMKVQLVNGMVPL", "experiment": "biochemical", "details": "read-out: Percent control"}, "FLT3(ITD)": {"system": "FLT3(ITD)", "details": "10 μM"}, "H292": {"system": "H292", "experiment": "Anticancer activity (cytotoxicity) in NSCLC cell line", "type": "cell-based"}, "FLT3(D835Y)": {"molecular_target": "T1, FLT3(D835Y) (Homo sapiens, UniProt P36888, D835Y)", "T1 sequence (P36888 27-993 D835Y)": "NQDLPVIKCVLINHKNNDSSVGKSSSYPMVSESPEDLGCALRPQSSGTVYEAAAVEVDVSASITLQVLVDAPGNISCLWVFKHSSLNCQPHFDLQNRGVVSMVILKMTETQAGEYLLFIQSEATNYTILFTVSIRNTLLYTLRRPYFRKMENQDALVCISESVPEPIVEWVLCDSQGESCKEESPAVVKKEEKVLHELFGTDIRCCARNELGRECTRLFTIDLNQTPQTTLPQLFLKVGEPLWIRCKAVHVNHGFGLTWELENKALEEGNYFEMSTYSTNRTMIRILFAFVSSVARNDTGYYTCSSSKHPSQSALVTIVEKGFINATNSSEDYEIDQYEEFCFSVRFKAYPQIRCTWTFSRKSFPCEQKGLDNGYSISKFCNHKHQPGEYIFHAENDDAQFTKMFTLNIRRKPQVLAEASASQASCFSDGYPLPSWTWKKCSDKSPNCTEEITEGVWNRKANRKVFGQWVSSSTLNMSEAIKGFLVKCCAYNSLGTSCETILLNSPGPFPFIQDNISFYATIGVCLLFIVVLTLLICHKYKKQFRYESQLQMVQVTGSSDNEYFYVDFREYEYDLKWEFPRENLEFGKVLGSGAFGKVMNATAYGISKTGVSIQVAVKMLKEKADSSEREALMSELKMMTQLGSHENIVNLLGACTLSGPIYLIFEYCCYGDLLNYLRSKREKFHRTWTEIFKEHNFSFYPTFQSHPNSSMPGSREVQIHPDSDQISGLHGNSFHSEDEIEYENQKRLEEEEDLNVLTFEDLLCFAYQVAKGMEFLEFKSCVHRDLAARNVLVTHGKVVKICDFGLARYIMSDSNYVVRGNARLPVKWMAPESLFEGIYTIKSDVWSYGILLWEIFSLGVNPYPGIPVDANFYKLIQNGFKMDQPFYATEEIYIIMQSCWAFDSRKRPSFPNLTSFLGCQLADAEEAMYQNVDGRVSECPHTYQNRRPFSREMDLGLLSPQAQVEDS"}, "EPHA4": {"molecular_target": "T2, EPHA4 (Homo sapiens, UniProt P54764)", "T2 construct": "purchased DiscoveRx KINOMEscan", "T2 sequence (P54764 20-986)": "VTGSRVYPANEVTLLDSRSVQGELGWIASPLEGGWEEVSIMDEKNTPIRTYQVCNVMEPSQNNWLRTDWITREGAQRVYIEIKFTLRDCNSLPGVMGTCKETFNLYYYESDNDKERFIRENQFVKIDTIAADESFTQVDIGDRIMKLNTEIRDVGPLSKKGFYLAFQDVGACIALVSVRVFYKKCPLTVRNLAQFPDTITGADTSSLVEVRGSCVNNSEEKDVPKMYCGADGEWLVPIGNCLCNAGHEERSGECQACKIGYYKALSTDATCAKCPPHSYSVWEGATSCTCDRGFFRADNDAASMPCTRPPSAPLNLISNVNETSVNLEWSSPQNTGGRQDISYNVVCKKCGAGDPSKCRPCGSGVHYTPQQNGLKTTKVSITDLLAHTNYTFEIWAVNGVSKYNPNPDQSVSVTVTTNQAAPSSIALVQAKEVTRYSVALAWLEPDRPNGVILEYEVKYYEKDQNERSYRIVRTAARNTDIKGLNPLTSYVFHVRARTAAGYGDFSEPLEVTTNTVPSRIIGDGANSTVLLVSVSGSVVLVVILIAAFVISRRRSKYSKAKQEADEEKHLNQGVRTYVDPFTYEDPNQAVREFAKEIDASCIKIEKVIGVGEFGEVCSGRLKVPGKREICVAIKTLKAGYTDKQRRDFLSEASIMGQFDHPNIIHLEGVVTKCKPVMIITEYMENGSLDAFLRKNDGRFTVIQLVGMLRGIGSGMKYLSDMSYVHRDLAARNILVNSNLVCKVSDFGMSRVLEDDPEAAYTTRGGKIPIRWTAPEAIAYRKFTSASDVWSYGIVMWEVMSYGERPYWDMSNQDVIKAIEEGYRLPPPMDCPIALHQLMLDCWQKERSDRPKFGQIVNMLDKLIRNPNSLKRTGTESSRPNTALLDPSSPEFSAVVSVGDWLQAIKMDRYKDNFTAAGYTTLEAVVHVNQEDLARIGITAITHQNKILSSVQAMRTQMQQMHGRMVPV", "type": "binding", "details": "10 μM"}, "ALK": {"molecular_target": "ALK (Homo sapiens, UniProt Q9UM73)", "details": "10 μM"}, "RET(M918T)": {"molecular_target": "RET(M918T) (Homo sapiens, UniProt P07949, M918T)", "details": "10 μM"}, "FLT1": {"molecular_target": "FLT1 (Homo sapiens, UniProt P17948)", "sequence (P17948 27-1338)": "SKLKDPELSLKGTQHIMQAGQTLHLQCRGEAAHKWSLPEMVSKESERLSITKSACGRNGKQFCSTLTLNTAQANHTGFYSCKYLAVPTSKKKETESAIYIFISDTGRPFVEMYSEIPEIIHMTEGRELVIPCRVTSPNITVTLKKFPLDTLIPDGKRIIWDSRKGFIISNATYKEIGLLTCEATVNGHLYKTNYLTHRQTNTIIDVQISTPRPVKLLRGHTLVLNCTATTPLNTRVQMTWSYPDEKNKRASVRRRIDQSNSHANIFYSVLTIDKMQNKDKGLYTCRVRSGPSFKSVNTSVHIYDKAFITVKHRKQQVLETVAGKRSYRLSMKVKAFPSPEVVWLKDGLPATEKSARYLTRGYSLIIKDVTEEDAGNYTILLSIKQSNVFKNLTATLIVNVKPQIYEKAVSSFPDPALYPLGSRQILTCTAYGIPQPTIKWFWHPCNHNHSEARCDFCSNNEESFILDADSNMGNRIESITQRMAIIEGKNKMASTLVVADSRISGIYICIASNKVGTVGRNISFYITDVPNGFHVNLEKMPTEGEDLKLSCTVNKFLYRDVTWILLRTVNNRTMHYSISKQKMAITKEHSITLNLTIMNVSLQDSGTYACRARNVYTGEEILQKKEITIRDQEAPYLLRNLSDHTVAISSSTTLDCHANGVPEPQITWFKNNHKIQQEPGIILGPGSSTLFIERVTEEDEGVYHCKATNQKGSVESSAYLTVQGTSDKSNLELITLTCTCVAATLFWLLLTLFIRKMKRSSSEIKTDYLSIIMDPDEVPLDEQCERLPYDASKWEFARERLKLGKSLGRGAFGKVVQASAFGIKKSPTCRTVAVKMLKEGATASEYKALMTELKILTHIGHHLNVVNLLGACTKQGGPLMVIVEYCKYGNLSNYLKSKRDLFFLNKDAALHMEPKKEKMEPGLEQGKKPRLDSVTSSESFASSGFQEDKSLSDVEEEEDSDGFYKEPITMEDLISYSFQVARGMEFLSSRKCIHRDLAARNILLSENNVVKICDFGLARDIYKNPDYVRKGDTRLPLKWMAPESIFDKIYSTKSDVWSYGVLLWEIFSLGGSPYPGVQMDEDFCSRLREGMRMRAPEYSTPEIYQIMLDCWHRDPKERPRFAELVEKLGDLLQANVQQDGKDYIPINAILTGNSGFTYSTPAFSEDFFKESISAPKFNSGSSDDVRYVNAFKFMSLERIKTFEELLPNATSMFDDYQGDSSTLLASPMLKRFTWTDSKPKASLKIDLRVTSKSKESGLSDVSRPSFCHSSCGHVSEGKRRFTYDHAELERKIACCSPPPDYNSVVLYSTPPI", "details": "10 μM"}, "ROS1": {"molecular_target": "ROS1 (Homo sapiens, UniProt P08922)", "details": "10 μM"}, "EPHB4": {"molecular_target": "T3, EPHB4 (Homo sapiens, UniProt P54760)", "T3 sequence (P54760 16-987)": "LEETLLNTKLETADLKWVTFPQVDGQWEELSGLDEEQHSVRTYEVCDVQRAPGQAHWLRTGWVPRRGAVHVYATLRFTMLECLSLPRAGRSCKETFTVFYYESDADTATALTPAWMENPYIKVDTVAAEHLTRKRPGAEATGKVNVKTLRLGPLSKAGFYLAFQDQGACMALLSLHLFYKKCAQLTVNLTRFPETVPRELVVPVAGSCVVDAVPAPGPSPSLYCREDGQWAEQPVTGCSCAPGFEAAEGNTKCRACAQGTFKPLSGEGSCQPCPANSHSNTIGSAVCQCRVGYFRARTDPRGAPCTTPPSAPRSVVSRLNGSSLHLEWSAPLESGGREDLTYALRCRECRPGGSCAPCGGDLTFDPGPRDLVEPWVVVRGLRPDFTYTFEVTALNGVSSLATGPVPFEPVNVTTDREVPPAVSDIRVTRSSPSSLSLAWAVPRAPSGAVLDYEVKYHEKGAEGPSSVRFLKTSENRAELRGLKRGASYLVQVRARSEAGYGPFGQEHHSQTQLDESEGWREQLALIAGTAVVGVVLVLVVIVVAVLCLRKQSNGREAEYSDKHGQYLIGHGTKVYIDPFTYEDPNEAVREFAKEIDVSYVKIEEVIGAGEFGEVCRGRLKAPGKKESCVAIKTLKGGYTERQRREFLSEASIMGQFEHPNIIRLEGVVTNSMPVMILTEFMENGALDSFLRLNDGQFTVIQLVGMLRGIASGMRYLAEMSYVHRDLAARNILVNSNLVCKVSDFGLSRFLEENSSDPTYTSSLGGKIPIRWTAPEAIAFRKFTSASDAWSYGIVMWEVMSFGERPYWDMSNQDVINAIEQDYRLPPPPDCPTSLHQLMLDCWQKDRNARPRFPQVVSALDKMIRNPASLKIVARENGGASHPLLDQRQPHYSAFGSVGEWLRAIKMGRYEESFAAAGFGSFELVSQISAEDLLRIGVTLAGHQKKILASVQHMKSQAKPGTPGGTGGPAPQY", "details": "10 μM"}, "FYN": {"molecular_target": "FYN (Homo sapiens, UniProt P06241)", "sequence (P06241 whole entry)": "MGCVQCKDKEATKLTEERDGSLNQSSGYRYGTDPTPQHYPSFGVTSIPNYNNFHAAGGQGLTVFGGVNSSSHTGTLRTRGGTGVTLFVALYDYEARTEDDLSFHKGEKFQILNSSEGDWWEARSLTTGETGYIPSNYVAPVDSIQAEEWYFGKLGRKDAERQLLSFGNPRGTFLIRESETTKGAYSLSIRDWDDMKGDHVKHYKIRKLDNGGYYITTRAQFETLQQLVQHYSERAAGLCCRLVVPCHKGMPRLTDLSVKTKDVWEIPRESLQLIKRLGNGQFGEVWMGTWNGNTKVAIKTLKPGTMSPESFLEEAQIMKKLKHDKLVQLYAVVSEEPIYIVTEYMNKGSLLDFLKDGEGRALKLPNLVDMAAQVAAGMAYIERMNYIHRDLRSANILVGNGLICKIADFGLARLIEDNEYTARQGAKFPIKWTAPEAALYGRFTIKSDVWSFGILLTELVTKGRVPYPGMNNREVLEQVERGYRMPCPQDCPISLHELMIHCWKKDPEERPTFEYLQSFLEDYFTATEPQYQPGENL", "details": "10 μM"}, "FLT4": {"molecular_target": "FLT4 (Homo sapiens, UniProt P35916)", "details": "10 μM"}, "DDR1": {"molecular_target": "T4, DDR1 (Homo sapiens, UniProt Q08345)", "T4 construct": "purchased DiscoveRx KINOMEscan", "type": "binding", "details": "for Percent control: 10 μM"}, "[1]": {"details": "Homo sapiens, NCI-H292, read-out: Anticancer activity (IC50) H292"}, "[2]": {"details": "NSCLC, EGFR wild type, read-out: Anticancer activity (IC50) H292"}}, "note": "Like-named read-outs stand apart in the source and are kept apart here."}
{"smiles": "C#Cc1cccc(Nc2ncnc3cc(OCCOC)c(OCCOC)cc23)c1", "note": "[Erlotinib]", "values": [{"measurement": "remaining activity at 10 µM", "setting": "CSK", "result": 49, "unit": "%"}, {"measurement": "remaining activity at 10 µM", "setting": "KIT(L576P)", "result": 25.9, "unit": "%"}, {"measurement": "remaining activity at 10 µM", "setting": "EPHA5", "result": 6.6, "unit": "%"}, {"measurement": "Percent control", "setting": "FLT3(ITD)", "result": 7.6, "unit": "%"}, {"measurement": "IC50", "setting": "H292; [1]", "result": "0.22 ± 0.12", "unit": "µM"}]}
{"smiles": "Cc1ccc(NC(=O)c2ccc(CN3CCN(C)CC3)cc2)cc1Nc1nccc(-c2cccnc2)[n+]1[Pt-2]1([Cl])[NH2+]C2CCCCC2[NH2+]1", "note": "(stereo not shown) [1b, oxaliplatin-imatinib]", "values": [{"measurement": "Percent control", "setting": "FLT3(D835Y); FLT3(D835Y), 10 μM", "result": 81, "unit": "%"}, {"measurement": "Percent control", "setting": "EPHA4", "result": 88, "unit": "%"}, {"measurement": "Percent control", "setting": "ALK", "result": 99, "unit": "%"}, {"measurement": "Percent control", "setting": "RET(M918T)", "result": 88, "unit": "%"}, {"measurement": "Percent control", "setting": "FLT1", "result": 85, "unit": "%"}, {"measurement": "Percent control", "setting": "ROS1", "result": 32, "unit": "%"}, {"measurement": "Percent control", "setting": "FLT3(ITD)", "result": 74, "unit": "%"}, {"measurement": "Percent control", "setting": "EPHB4", "result": 100, "unit": "%"}, {"measurement": "Percent control", "setting": "FYN", "result": 78, "unit": "%"}, {"measurement": "Percent control", "setting": "FLT4", "result": 99, "unit": "%"}]}
{"smiles": "Cc1ccc(NC(=O)c2ccc(CN3CCN(C)CC3)cc2)cc1Nc1nccc(-c2cccnc2)n1", "note": "[Imatinib, reference compound]", "values": [{"measurement": "remaining activity at 10 µM", "setting": "CSK", "result": 100, "unit": "%"}, {"measurement": "Percent control", "setting": "FLT3(D835Y); FLT3(D835Y), 10 μM", "result": 100, "unit": "%"}, {"measurement": "Percent control", "setting": "EPHA4", "result": 100, "unit": "%"}, {"measurement": "Percent control", "setting": "ALK", "result": 100, "unit": "%"}, {"measurement": "Percent control", "setting": "RET(M918T)", "result": 100, "unit": "%"}, {"measurement": "remaining activity at 10 µM", "setting": "KIT(L576P)", "result": 0.1, "unit": "%"}, {"measurement": "Percent control", "setting": "FLT1", "result": 100, "unit": "%"}, {"measurement": "Percent control", "setting": "ROS1", "result": 100, "unit": "%"}, {"measurement": "remaining activity at 10 µM", "setting": "EPHA5", "result": 100, "unit": "%"}, {"measurement": "Percent control", "setting": "FLT3(ITD)", "result": 38.7, "unit": "%"}, {"measurement": "Percent control", "setting": "EPHB4", "result": 100, "unit": "%"}, {"measurement": "Percent control", "setting": "FLT4", "result": 100, "unit": "%"}]}
{"smiles": "COc1cc2c(Nc3ccc(Br)cc3F)ncnc2cc1OCC1CCN(C)CC1", "note": "[Vandetanib, reference compound]", "values": [{"measurement": "remaining activity at 10 µM", "setting": "CSK", "result": 20, "unit": "%"}, {"measurement": "remaining activity at 10 µM", "setting": "KIT(L576P)", "result": 1.4, "unit": "%"}, {"measurement": "remaining binding at 10 µM", "setting": "DDR1; read-out: Percent control", "result": 0.1, "unit": "%"}, {"measurement": "remaining activity at 10 µM", "setting": "EPHA5", "result": 2.3, "unit": "%"}, {"measurement": "Percent control", "setting": "FLT3(ITD)", "result": 15.3, "unit": "%"}, {"measurement": "IC50", "setting": "H292; [1]", "result": "6.24 ± 0.94", "unit": "µM"}]}
{"smiles": "COc1cc2c(Nc3ccc(Br)cc3F)[n+]([Pt-2]3([Cl])[NH2+]C4CCCCC4[NH2+]3)cnc2cc1OCC1CCN(C)CC1", "note": "(stereo not shown) [3b, oxaliplatin-vandetanib]", "values": [{"measurement": "Percent control", "setting": "FLT3(D835Y)", "result": 46}, {"measurement": "Percent control", "setting": "DDR1", "result": 0.3, "unit": "%"}, {"measurement": "Percent control", "setting": "ROS1", "result": 74, "unit": "%"}, {"measurement": "Percent control", "setting": "EPHB4", "result": 35, "unit": "%"}, {"measurement": "Percent control", "setting": "FYN", "result": 32, "unit": "%"}, {"measurement": "IC50", "setting": "H292; [2]", "result": "9.32 ± 1.01", "unit": "µM"}, {"measurement": "Percent control", "setting": "FLT4", "result": 14, "unit": "%"}]}
{"smiles": "C#Cc1cccc(Nc2c3cc(OCCOC)c(OCCOC)cc3nc[n+]2[Pt@SP2-2]([NH3+])([NH3+])[Cl])c1", "note": "[2a, cisplatin-erlotinib]", "values": [{"measurement": "Percent control", "setting": "FLT3(D835Y)", "result": 21}, {"measurement": "Percent control", "setting": "EPHA4", "result": 79, "unit": "%"}, {"measurement": "Percent control", "setting": "ALK", "result": 79, "unit": "%"}, {"measurement": "Percent control", "setting": "RET(M918T)", "result": 61, "unit": "%"}, {"measurement": "Percent control", "setting": "DDR1", "result": 74, "unit": "%"}, {"measurement": "Percent control", "setting": "FLT1", "result": 88, "unit": "%"}, {"measurement": "Percent control", "setting": "ROS1", "result": 91, "unit": "%"}, {"measurement": "Percent control", "setting": "FLT3(ITD)", "result": 79, "unit": "%"}, {"measurement": "Percent control", "setting": "EPHB4", "result": 91, "unit": "%"}, {"measurement": "Percent control", "setting": "FYN", "result": 72, "unit": "%"}, {"measurement": "IC50", "setting": "H292; [2]", "result": "3.27 ± 1.75", "unit": "µM"}, {"measurement": "Percent control", "setting": "FLT4", "result": 90, "unit": "%"}]}
